According to PubChem BioAssay (NCI):
Several values for one entry are separate records, joined by “and”; a condition that tells them apart may be missing. Identical values can stand only once.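 Test compounds were applied to cells in 96-well plates for 48 hours at 5 doses. GI50: concentration for 50% inhibition of growth. TGI: concentration producing complete growth inhibition.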

Legend:
Test in all cases: NCI-60 cell line screen, 48 h
SF-295 CNS = test system: SF-295 CNS
MOLT-4 leukemia = test system: MOLT-4 leukemia
786-0 renal = test system: 786-0 renal
HT29 colon = test system: HT29 colon
RPMI-8226 leukemia = test system: RPMI-8226 leukemia
EKVX NSCLC = test system: EKVX NSCLC
SK-MEL-5 melanoma = test system: SK-MEL-5 melanoma
CAKI-1 renal = test system: CAKI-1 renal
M14 melanoma = test system: M14 melanoma
OVCAR-5 ovarian = test system: OVCAR-5 ovarian

SMILES | TGI (SF-295 CNS) | TGI (MOLT-4 leukemia) | TGI (786-0 renal) | TGI (HT29 colon) | TGI (RPMI-8226 leukemia) | TGI (EKVX NSCLC) | TGI (SK-MEL-5 melanoma) | TGI (CAKI-1 renal) | TGI (M14 melanoma) | TGI (OVCAR-5 ovarian) | GI50 (SF-295 CNS) | GI50 (786-0 renal) | GI50 (HT29 colon) | GI50 (EKVX NSCLC) | GI50 (SK-MEL-5 melanoma) | GI50 (CAKI-1 renal) | GI50 (M14 melanoma) | GI50 (OVCAR-5 ovarian) | GI50 (MOLT-4 leukemia) | GI50 (RPMI-8226 leukemia)
CC(=O)CCCCCCCCCCCC[C@@H]1CC[C@H](C)[C@H](O)N1 | > 100 µM | > 100 µM | > 100 µM | > 100 µM | > 100 µM | > 100 µM | > 100 µM | > 100 µM | > 100 µM | > 100 µM |  |  |  |  |  |  |  |  |  | 
Clc1ccc(-n2nnc(C3=NCCN3)c2-c2ccccc2)cc1 | > 100 µM | > 100 µM | > 100 µM | > 100 µM | > 100 µM | > 100 µM | > 100 µM | > 100 µM | > 100 µM | > 100 µM |  |  |  |  |  |  |  |  |  | 
O=C1C=C[C@@]23CC1C(O)C[C@H]2C=Cc1ccccc13 (stereo partly specified) | > 100 µM | > 100 µM | > 100 µM | > 100 µM | > 100 µM |  | > 100 µM | > 100 µM | > 100 µM | > 100 µM |  |  |  |  |  |  |  |  |  | 
COCCn1cc(-c2csc(-c3c[nH]c4ccccc34)n2)c2cccnc21 | > 100 µM |  | > 100 µM | > 100 µM |  | > 100 µM | > 100 µM | > 100 µM | > 100 µM | > 100 µM | 3.35 µM | 6.25 µM | 3.19 µM | 2 µM | 3.22 µM | 8.36 µM | 3.22 µM | 28.2 µM |  | 
COC(=O)C1=C(C)N(NC(N)=O)C2(N)N(NC(N)=O)C(C)=C(C(=O)OC)C12C(=O)OC (stereo unspecified) | > 10 µM | > 100 µM | > 100 µM | > 100 µM | > 100 µM | > 100 µM |  | > 100 µM | > 100 µM | > 100 µM |  |  |  |  |  |  |  |  |  | 
N#Cc1c(C(=O)c2ccccc2)cnn1-c1ccccc1 | > 25 µM | > 25 µM | > 25 µM | > 25 µM | > 25 µM |  | > 25 µM | > 25 µM | > 25 µM | > 25 µM | > 25 µM | > 25 µM | > 25 µM |  | > 25 µM | > 25 µM | > 25 µM | > 25 µM | > 25 µM | > 25 µM
Clc1ccc(Cl)c2[s+]snc12 | > 100 µM | > 100 µM | > 56.1 µM | 68.3 µM | > 77.6 µM | > 100 µM | > 100 µM | > 100 µM | > 100 µM | > 100 µM |  |  |  |  |  |  |  |  |  | 
Cc1ccc(C(CN(C)C)C(=O)c2ccccc2)cc1 (stereo unspecified) | 18.2 µM | 5.75 µM | 4 µM | 12.5 µM | 4.28 µM | 23.1 µM | 13.6 µM | 7.97 µM | 4.35 µM | 15.8 µM | 5.09 µM | 2.12 µM | 3.26 µM | 4.63 µM | 3.67 µM | 2.64 µM | 1.91 µM | 4.23 µM | 1.68 µM | 1.12 µM
CC12CCC3C(CC=C4CC(O)CCC43C)C1C/C(=C\N1CCCC1)C2=O (stereo unspecified) | > 100 µM | > 100 µM | > 100 µM | > 100 µM | > 100 µM | > 100 µM | > 100 µM | > 100 µM | > 100 µM | > 100 µM | 57.2 µM | > 100 µM | > 100 µM | 46.6 µM | 64.5 µM | 61.2 µM | > 100 µM | > 100 µM | > 100 µM | 37 µM
N#CC(C(=O)/C(=N/N)C(C#N)c1ccc(Cl)cc1)c1ccc(Cl)cc1 (stereo unspecified) | > 100 µM | > 100 µM | > 100 µM | > 100 µM | > 100 µM | > 100 µM | > 100 µM |  | > 100 µM | > 100 µM |  |  |  |  |  |  |  |  |  | 
COc1ccc(C=C2C(=O)OC(C)(C)OC2=O)cc1OC | > 100 µM | > 100 µM | > 100 µM | > 100 µM | > 100 µM | > 100 µM | > 100 µM | > 100 µM | > 100 µM | > 100 µM |  |  |  |  |  |  |  |  |  | 
CC(=O)O[C@H]1C(=O)[C@@]2(C)C(C(OC(=O)c3ccccc3)[C@]3(O)CC(OC(=O)[C@H](OC(=O)CCC(=O)O)C(NC(=O)c4ccccc4)c4ccccc4)C(C)=C1C3(C)C)C1(OC(C)=O)COC1C[C@@H]2OC(=O)CCC(=O)O (stereo partly specified) |  | > 20.6 µM | > 100 µM |  |  | > 100 µM | > 100 µM | > 100 µM | > 100 µM |  |  |  |  |  |  | > 89.2 µM and 36.3 µM |  |  |  | 
C/C(O)=C(\N=O)C(=O)NCCc1ccccc1 | > 100 µM | > 100 µM | > 100 µM | > 100 µM | > 100 µM | > 100 µM | > 100 µM | > 100 µM | > 100 µM | > 100 µM |  |  |  |  |  |  |  |  |  | 
C[C@]12CCC3[C@@H](C[C@@H]4SC(Nc5ccccc5)=N[C@@]45CC(=O)CC[C@]35C)[C@@H]1CCC2=O (stereo partly specified) | > 100 µM | > 100 µM | 13.1 µM | 17.6 µM | 7.44 µM | > 100 µM | 26 µM | 30.2 µM | 50.9 µM | > 100 µM | 8.98 µM | 3.02 µM | 3.9 µM | 38.8 µM | 10.2 µM | 13 µM | 7.88 µM | 24.5 µM | 2.84 µM | 2.73 µM
[Cl][Bi]([O]c1ccccn1)[O]c1ccccn1 | > 100 µM |  | > 100 µM |  |  | > 100 µM | > 100 µM | > 100 µM | > 100 µM | > 100 µM | > 100 µM | > 100 µM |  | > 100 µM | 40.2 µM | > 100 µM | > 100 µM | > 100 µM |  | 
COc1c(O)c2c(c3cc(C(=O)N4CCc5c4c(O)c(OC)c4[nH]c(C(=O)N6CC7CC78C6=CC(=O)c6[nH]cc(C)c68)cc54)[nH]c13)CCN2C(N)=O (stereo unspecified) | 4.8 nM and 0.00618 µg/mL | 456 nM and 0.0737 µg/mL |  |  | 313 nM and 11.9 µM and 0.159 µg/mL | > 100 µM and 0.0904 µg/mL | 27.9 nM and 400 nM and 0.00964 µg/mL | 5.31 nM and > 100 µM and 0.00582 µg/mL |  | 51.9 ng/mL | 1.74 ng/mL | 0.0293 µM | 0.00254 µM | 6.94 ng/mL |  |  | 0.172 µM | 15.2 ng/mL | 6.42 ng/mL | 
Cc1ccc(NC(=O)CC2C(=O)Nc3ccccc3S2=O)cc1C (stereo unspecified) | > 100 µM | > 100 µM | 68.8 µM | > 100 µM | > 100 µM | > 100 µM | > 100 µM | > 100 µM | > 100 µM | > 100 µM |  |  |  |  |  |  |  |  |  | 
